Measurements: article PMC11352859, “Functionalized Congeners of 2H-Chromene P2Y6 Receptor Antagonists” (Cells, 2024)
“And” between values parts separate entries of the source, which are not always exact repeats. Identical values can stand only once. Like-named read-outs stand apart in the source and are kept apart here.

How the values were obtained:
[1] = system: 45 target sites (receptors, channels, and transporters); assay: PDSP off-target binding screen at 45 target sites; design: species or system human; details: PDSP binding assays
Excerpt: (§1) Table S2. Off-target screening (to replace table later). We thank Dr. Bryan L. Roth (Univ. North Carolina at Chapel Hill) and National Institute of Mental Health's Psychoactive Drug Screening Program (Contract # HHSN-271-2008-00025-C) for screening data. Reference: Besnard et al.
(§2) Procedures: https://pdsp.unc.edu/pdspweb/content/UNC-CH%20Protocol%20Book.pdf […]
(§3) nucleosides were found at the following sites (human unless noted): 5HT1A, 5HT1B, 5HT1D, […]
(§4) β3, BZP rat brain site, D1, D2, D3, D4, D5, GABAA, H1, H2, H3, H4, M1, M2, M5, δ-opioid receptor (DOR), κ-opioid receptor (KOR), μ-opioid receptor (MOR), σ1, σ2, DAT, NET, SERT. Ki values […]
(§5) Compound # PDSP # Receptor LogKi Ki (nM)

[2] = system: HeLa cells; assay: MTT cell viability assay, HeLa cells; assay type: cell-based, human; details: for % survival: 12 h, MTT
Experimental: The 1321N1 astrocytoma (hP2Y6R-overexpressing) and HeLa (non-transfected) cell lines were cultured in Dulbecco’s modified Eagle’s medium (DMEM, HyClone, Logan, UT, USA) supplemented with 5% heat-inactivated fetal bovine serum (FBS, HyClone, UT, USA), 100 U/mL penicillin, and 100 µg/mL streptomycin in 5% CO2 at 37 °C. The cell viability was determined using an MTT kit (Sigma, St. Louis, MO, USA) according to the manufacturer’s instructions. Briefly, 1 × 10^4 cells were seeded in triplicate in 96-well plates. The hP2Y6R-astrocytoma and HeLa cells were treated with a P2Y6R agonist and antagonists at a range of concentrations and incubated for 12 h. The cell viability was measured at 490 nm using a SpectraMax-M5 Spectrometer (Molecular Devices, San Jose, CA, USA).

[3] = target: T1, hP2Y6R (Homo sapiens, UniProt Q15077); assay: UDP (100 nM)-induced Ca2+ mobilization in hP2Y6R stably transfected 1321N1 astrocytoma cells; assay type: cell-based
T1 construct: expressed in transfected cells
T1 sequence (Q15077 whole entry): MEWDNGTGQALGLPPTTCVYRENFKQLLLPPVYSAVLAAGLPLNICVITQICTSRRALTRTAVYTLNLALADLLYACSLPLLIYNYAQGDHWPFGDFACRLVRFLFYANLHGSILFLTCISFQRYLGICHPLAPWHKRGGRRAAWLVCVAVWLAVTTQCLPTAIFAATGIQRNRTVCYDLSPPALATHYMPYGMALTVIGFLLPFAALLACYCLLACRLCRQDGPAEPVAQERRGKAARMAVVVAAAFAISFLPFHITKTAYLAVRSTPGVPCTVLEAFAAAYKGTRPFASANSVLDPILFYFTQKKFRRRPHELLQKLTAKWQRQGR
Experimental: To screen for P2Y6R antagonist activity, PLC-mediated calcium mobilization assays were carried out using the recombinant human P2Y6R stably expressed in 1321N1 astrocytoma cells (hP2Y6R-1321N1) according to the previously published method. Briefly, the hP2Y6R-1321N1 cells were seeded on 96-well black plates and incubated overnight. The antagonists were pretreated along with the FLIPR dye (Calcium 6 assay kit, Molecular Devices, San Jose, CA, USA) containing 5 mM probenecid for 45 min, prior to agonist addition followed by an immediate intracellular Ca^2+ measurement. […] Here, probenecid was used as an organic anion transporter inhibitor to prevent the efflux of the dye into the extracellular environment. During incubation, the membrane permeable dye enters the cytoplasm and cleaves the acetoxymethyl protection to enable Ca^2+ binding. When the P2Y6R was activated by UDP, the increased calcium concentration was directly measured by intracellular changes in the fluorescence intensity with a Fluorescent Imaging Plate Reader (FLIPR^TETRA, Molecular Devices, San Jose, CA, USA).

[4] = target: T2, α2B (Homo sapiens, UniProt P18089); assay: PDSP binding assay, α2B; details: mean, n = 2
T2 construct: NIMH Psychoactive Drug Screening Program (PDSP)
T2 sequence (P18089 1-450): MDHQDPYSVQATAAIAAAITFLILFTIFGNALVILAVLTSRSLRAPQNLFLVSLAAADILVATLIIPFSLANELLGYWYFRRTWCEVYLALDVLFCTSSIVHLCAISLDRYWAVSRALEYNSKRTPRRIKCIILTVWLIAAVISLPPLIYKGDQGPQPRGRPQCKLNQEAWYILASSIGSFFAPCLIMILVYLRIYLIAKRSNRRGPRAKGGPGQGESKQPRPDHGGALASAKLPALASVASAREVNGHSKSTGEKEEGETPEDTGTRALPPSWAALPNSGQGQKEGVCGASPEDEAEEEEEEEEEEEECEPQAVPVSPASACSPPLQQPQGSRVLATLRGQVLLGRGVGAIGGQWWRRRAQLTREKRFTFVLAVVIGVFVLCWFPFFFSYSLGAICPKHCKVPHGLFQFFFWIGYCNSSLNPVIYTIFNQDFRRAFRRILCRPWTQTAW
Excerpt: as §1, §2, §3, §4, §5

[5] = target: T3, hP2Y14R (Homo sapiens, UniProt Q15391); assay: whole-cell binding of fluorescent antagonist MRS4174 in CHO-hP2Y14R cells (flow cytometry)
T3 construct: expressed in transfected cells
T3 sequence (Q15391 1-338): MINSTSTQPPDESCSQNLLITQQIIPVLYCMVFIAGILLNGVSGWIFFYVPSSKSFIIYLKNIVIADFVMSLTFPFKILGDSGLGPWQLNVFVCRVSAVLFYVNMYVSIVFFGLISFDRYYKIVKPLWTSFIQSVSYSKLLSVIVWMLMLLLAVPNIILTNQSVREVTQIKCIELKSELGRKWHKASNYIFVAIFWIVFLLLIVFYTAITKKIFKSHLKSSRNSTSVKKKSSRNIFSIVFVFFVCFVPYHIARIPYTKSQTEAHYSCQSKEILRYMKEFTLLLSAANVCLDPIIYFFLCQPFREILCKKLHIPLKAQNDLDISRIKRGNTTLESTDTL

[6] = target: T4, D4 (Homo sapiens, UniProt P21917); assay: PDSP binding assay, D4; details: mean, n = 2
T4 construct: NIMH Psychoactive Drug Screening Program (PDSP)
T4 sequence (P21917 whole entry): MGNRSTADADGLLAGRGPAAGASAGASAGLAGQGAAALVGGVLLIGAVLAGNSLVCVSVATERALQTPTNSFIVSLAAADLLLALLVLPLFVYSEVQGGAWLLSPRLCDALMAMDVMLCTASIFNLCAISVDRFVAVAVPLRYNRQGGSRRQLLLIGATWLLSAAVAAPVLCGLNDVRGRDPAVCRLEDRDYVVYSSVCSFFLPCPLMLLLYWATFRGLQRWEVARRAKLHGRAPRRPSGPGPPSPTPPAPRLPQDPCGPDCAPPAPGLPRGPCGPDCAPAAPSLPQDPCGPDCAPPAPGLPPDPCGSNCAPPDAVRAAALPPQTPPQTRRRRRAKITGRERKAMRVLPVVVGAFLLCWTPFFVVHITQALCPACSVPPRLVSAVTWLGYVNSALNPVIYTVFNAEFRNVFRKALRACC
Excerpt: as §1, §2, §3, §4, §5

[7] = target: T5, H1 (Homo sapiens, UniProt P35367); assay: PDSP binding assay, H1; details: Table S2, single determinations; read-out: Ki (nM), H1
T5 construct: NIMH Psychoactive Drug Screening Program (PDSP)
T5 sequence (P35367 whole entry): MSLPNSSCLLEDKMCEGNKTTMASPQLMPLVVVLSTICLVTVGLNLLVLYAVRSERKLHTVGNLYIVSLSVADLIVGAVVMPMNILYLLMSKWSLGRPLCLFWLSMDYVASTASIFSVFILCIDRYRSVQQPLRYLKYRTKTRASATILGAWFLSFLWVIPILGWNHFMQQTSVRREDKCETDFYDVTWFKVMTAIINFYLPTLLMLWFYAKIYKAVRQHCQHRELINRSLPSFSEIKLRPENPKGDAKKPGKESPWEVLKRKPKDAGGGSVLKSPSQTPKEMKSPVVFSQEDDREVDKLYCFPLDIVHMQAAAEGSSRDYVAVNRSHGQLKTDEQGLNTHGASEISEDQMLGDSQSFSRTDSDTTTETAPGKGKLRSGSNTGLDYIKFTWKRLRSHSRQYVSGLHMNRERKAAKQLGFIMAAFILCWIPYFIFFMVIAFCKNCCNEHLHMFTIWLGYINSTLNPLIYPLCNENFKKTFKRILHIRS
Excerpt: as §1, §2, §3, §4, §5

[8] = target: T6, D3 (Homo sapiens, UniProt P35462); assay: PDSP binding assay, D3; details: Table S2, single determination
T6 construct: NIMH Psychoactive Drug Screening Program (PDSP)
T6 sequence (P35462 whole entry): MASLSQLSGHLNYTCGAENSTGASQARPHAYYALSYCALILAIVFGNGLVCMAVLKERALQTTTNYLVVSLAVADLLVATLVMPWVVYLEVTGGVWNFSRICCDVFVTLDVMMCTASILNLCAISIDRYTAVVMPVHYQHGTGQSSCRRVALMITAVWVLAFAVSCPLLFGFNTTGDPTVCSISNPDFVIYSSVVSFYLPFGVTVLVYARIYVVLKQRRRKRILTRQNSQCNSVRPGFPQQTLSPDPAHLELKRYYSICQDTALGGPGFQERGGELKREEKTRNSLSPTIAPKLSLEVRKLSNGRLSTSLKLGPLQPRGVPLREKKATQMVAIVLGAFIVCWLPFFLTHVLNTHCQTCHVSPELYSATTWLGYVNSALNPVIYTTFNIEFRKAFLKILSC
Excerpt: as §1, §2, §3, §4, §5

[9] = target: T7, κ-opioid receptor (KOR) (Homo sapiens, UniProt P41145); assay: PDSP binding assay, κ-opioid
T7 construct: NIMH Psychoactive Drug Screening Program (PDSP)
T7 sequence (P41145 whole entry): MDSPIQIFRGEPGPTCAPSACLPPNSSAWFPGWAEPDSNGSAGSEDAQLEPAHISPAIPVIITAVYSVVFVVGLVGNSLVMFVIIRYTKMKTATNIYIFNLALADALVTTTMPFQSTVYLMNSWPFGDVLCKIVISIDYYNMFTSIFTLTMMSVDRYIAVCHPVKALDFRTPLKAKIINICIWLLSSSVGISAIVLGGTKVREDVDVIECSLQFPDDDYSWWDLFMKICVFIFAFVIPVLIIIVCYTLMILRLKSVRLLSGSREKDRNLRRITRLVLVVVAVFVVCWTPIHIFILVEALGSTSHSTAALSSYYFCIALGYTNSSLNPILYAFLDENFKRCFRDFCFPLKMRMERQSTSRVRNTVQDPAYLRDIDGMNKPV
Excerpt: as §1, §2, §3, §4, §5

[10] = target: T8, D5 (Homo sapiens, UniProt P21918); assay: PDSP binding assay, D5
T8 construct: NIMH Psychoactive Drug Screening Program (PDSP)
T8 sequence (P21918 whole entry): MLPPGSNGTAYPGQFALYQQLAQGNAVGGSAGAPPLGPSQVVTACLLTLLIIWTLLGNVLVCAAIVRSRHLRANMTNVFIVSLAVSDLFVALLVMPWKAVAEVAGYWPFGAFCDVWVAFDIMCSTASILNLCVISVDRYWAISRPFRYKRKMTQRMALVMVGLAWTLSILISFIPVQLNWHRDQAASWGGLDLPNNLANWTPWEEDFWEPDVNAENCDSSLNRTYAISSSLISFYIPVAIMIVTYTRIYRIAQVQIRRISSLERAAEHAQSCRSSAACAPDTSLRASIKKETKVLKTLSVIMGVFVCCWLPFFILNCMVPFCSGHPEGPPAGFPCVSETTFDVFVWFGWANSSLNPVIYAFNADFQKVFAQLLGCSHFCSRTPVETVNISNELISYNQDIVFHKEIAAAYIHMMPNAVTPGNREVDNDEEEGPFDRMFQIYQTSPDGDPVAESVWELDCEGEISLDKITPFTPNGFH
Excerpt: as §1, §2, §3, §4, §5

[11] = target: T9, SERT (Homo sapiens, UniProt P31645); assay: PDSP binding assay, SERT; details: Table S2, single determination
T9 construct: NIMH Psychoactive Drug Screening Program (PDSP)
T9 sequence (P31645 whole entry): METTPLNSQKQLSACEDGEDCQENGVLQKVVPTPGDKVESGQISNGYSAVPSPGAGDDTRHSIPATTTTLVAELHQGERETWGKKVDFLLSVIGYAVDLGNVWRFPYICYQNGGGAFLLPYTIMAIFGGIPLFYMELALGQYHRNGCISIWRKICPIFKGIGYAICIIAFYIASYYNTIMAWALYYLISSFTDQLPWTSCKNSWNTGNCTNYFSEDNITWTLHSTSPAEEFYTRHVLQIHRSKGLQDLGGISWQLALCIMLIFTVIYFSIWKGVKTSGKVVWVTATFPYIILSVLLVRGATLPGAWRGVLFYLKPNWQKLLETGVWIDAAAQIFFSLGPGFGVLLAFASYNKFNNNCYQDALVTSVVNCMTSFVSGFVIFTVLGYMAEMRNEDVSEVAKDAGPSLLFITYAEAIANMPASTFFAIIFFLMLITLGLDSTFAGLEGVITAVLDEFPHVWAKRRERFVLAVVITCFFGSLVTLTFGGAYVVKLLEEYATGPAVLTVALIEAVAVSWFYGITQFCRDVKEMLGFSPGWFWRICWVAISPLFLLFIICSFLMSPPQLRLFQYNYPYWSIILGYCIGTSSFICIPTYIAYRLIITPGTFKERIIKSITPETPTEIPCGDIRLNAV
Excerpt: as §1, §2, §3, §4, §5

[12] = target: T10, 5-HT1A (Homo sapiens, UniProt P08908); assay: PDSP binding assay, 5-HT1A; details: Table S2, single determination
T10 construct: NIMH Psychoactive Drug Screening Program (PDSP)
T10 sequence (P08908 whole entry): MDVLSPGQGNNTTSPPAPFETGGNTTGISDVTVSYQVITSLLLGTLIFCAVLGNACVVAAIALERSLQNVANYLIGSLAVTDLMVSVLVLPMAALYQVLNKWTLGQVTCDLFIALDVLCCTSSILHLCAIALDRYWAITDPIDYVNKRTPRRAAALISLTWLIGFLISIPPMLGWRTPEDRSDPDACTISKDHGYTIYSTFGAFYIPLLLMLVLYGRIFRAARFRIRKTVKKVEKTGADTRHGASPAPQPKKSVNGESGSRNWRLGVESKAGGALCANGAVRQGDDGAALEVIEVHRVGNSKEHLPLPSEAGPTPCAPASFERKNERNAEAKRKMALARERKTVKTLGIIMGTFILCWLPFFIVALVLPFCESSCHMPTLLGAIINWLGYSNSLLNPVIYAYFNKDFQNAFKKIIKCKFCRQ
Excerpt: as §1, §2, §3, §4, §5

CC(C)(C)OC(=O)NCCCCCCCC#Cc1ccc2c(c1)C=C([N+](=O)[O-])C(C(F)(F)F)O2 (centres unmarked) [Compound 30, tert-Butyl (9-(3-nitro-2-(trifluoromethyl)-2H-chromen-6-yl)non-8-yn-1-yl)carbamate]
off-target interactions at 45 target sites [1]: seven off-target interactions
% survival ([2]; 0.05 µM): 94%
% survival ([2]; 0.1 µM): 94%
% survival ([2]; 0.5 µM): 87%
% survival ([2]; 1 µM): 71%
inhibition of viability ([2]; at 1 µM, 12 h exposure): 29%
IC50 ([3]; UDP 100 nM, 3–4 independent triplicate determinations, read-out: IC50, hP2Y6R (Mean ± SEM)): 0.162 ± 0.013 µM
fold greater affinity than the corresponding pivaloyl derivative ([3]; hP2Y6R IC50 ratio): 107 fold
Ki [4]: 0.17 µM
IC50 ([5]; CHO-hP2Y14, competitive binding, flow cytometer): 21.4 ± 5.8 µM
fold selective compared to the hP2Y14R ([5]; hP2Y6R vs hP2Y14R): 132 fold
Ki [6]: 3.1 µM
Ki [7]: 630 nM and 366 nM
Ki [8]: > 10000 nM
Ki ([9]; PDSP, mean, n = 2, read-out: Ki, κ-opioid): 2200 nM
Ki ([9]; Table S2, single determination, read-out: Ki (nM), KOR): 1400 nM
Ki ([10]; PDSP, mean, n = 2, read-out: Ki, D5): 780 nM
Ki ([10]; Table S2, single determinations, read-out: Ki (nM), D5): 643 nM and 911 nM
Ki [11]: > 10000 nM
Ki [12]: > 10000 nM
